According to PMC8465942, “Cyano- and Ketone-Containing Selenoesters as Multi-Target Compounds against Resistant Cancers” (Cancers, 2021):
Values joined by “and” are separate entries in the source; they are usually repeats but may differ in a detail not shown here. Identical values can stand only once. “Also recorded” adds a separate entry of the source.

Tests used:
[1] = molecular target: T1, recombinant human P-gp membranes (Homo sapiens, UniProt P08183); assay: P-gp ATPase activity assay (Pgp-Glo); type: biochemical; conditions: 25 µM; relative to basal activity
T1 construct: purchased Promega
T1 sequence (P08183 whole entry): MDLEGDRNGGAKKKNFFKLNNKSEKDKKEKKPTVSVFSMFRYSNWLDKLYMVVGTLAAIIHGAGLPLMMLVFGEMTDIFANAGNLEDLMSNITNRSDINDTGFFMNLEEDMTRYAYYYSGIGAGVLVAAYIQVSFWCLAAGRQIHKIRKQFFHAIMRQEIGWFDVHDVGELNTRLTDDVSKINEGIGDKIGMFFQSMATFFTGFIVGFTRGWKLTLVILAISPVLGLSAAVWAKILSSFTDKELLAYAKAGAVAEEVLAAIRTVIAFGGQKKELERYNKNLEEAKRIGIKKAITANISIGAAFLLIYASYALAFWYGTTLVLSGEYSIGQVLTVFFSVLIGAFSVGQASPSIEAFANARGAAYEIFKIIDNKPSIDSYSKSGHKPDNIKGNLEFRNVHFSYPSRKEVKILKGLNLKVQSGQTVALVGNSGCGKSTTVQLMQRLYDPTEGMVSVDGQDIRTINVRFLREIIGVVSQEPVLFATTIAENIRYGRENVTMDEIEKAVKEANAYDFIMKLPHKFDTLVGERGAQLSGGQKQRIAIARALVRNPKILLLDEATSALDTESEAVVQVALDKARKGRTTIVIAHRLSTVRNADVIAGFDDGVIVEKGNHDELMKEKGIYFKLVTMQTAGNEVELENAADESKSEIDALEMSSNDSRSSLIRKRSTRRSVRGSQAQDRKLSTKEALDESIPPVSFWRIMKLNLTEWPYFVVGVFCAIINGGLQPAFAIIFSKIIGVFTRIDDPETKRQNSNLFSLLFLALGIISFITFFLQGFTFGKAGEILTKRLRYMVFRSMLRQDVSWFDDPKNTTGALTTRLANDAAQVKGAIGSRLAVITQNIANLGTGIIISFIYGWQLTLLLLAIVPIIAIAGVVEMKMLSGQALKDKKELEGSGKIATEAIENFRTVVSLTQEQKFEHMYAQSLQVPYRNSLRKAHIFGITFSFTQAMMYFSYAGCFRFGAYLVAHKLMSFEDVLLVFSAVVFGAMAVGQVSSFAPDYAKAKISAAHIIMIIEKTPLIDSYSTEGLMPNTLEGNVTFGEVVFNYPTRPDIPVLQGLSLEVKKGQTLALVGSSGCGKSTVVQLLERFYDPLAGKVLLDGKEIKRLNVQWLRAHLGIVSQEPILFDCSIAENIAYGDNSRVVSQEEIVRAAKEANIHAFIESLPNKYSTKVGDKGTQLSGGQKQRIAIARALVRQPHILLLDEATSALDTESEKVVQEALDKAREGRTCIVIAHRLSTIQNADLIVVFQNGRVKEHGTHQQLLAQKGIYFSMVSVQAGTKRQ
Description: P-glycoprotein ATPase activity was determined using the Pgp-Glo^TM Assay System (Promega, WI, USA). The assay was performed according to the manufacturer’s instructions. […] DMSO at 2% was applied as a solvent control. […] The reaction was stopped after adding 50 µL of ATP Detection Reagent. Then, the samples and controls were incubated at room temperature for 20 min. The emitted luciferase-generated luminescent signal was measured in a CLARIOstar Plus plate reader (BMG Labtech, UK) at 580 nm. The relative ATPase activity was calculated based on the ratio between the luminescence measured of the P-gp ATPase activity of each compound and the basal P-gp ATPase activity according to the following equation: Relative ATPase activity=Lumtreated−Lumuntreated/LumNa3VO4 − Lumuntreated
The effect of the tested compounds was evaluated according to the instructions of the manufacturer (Table 2).

[2] = test system: MDR Colo 320 adenocarcinoma cells; assay: Apoptosis induction (Annexin V-FITC / propidium iodide); type: cell-based, human; conditions: 2 µM; for Cell Death (%) Treated Sample-Untreated Sample / Early Apoptosis (%) Treated Sample-Untreated Sample / Late Apoptosis (%) Treated Sample-Untreated Sample: 3 h induction; for Apoptosis Quotient (%): total apoptotic events relative to reference M627 (20 µM)
Description: The assay was carried out using an Annexin V-FITC Apoptosis Detection Kit Cat. No. PF 032 from Calbiochem (EMD Biosciences. Inc. La Jolla. CA), according to the manufacturer's instructions. […] The cell suspension was distributed into 1 mL aliquots (1 × 10^6 cells) into a 24-well microplate and incubated overnight at 37 °C, with 5% CO2. On the following day, the medium was removed and a fresh medium was added to the cells. The cells were incubated in the presence of Se-compounds for 3 h at 37 °C. […] After a 3 h induction period, the culture medium was removed, the cells were washed with PBS, and a fresh medium was added to the cells. The 24-well plates were incubated overnight at 37 °C, with 5% CO2. After the incubation, the supernatant was collected in a microfuge tube and 200 μL of 0.25 trypsin (Trypsin-Versene) was added to the wells until the cells detached from the surfaces of the wells. The cells were centrifuged at 2000× g for 2 min at room temperature, the supernatant was removed, and the cells were re-suspended in fresh serum-free medium. After this procedure, apoptosis assay was carried out according to the rapid protocol of the kit using Annexin V-FITC and propidium iodide staining. […] The data were analysed by FlowJo^TM software (BD Biosciences, San Jose, NJ, USA).

[3] = molecular target: ABCB1 (P-glycoprotein) in Colo 320 colonic adenocarcinoma cells (Homo sapiens, UniProt P08183); assay: ABCB1 inhibition, rhodamine 123 accumulation by flow cytometry; conditions: for FAR (fluorescence activity ratio): rhodamine 123, FAR above 2 considered effective
Sequence of ABCB1 (P-glycoprotein) in Colo 320 colonic adenocarcinoma cells (P08183 whole entry): as above
Description: The inhibition of the ABCB1 multidrug efflux pump ABCB1 by the tested compounds was evaluated using flow cytometry, measuring the retention of rhodamine 123 by ABCB1 (P-glycoprotein) in Colo 320 colonic adenocarcinoma cells. Briefly, the cell number of colonic adenocarcinoma cells were adjusted to 2 × 10^6 cells/mL, re-suspended in serum-free RPMI-1640 medium in the case of colonic adenocarcinoma cells, and distributed in 0.5 mL aliquots into Eppendorf centrifuge tubes. The tested compounds were added at different concentrations (0.2 and 2 µM; from 1 and 10 mM stock solutions, respectively), and the samples were incubated for 10 min at room temperature. Tariquidar was applied as the positive control (0.2 µM final concentration), and DMSO was used as the solvent control (at 2 v/v%). Next, 10 µL (5.2 µM final concentration) of the fluorochrome rhodamine 123 (Sigma, St. Louis, MO, USA) was added to the samples and the cells were incubated for 20 min at 37 °C. After the incubation period, the cells were washed twice and re-suspended in 0.5 mL PBS for analysis. The fluorescence of the gated cell population was measured with a Partec CyFlow® flow cytometer (Partec, Münster, Germany). The percentage of the mean fluorescence intensity was calculated for the treated MDR cells as compared with the untreated cells. The results were obtained from a representative flow cytometry experiment in which at least 20,000 individual cells of the overall population were evaluated for the rhodamine 123 retained inside the cells. The fluorescence activity ratio (FAR) was calculated based on the following equation, which relates the measured fluorescence values: FAR=Colo320treated / Colo320control/Colo205treated / Colo205control
The parameters evaluated from flow cytometry experiments were: Forward Scatter Count (FSC, provides information about cell size); Side Scatter Count (SSC, proportional to cell granularity or internal complexity); FL-1 (Mean fluorescence of the cells), and Fluorescence Activity Ratio (FAR), which was calculated by the equation given above.

[4] = test system: resistant Colo 320 colon adenocarcinoma cells expressing the ABCB1 transporter; assay: Checkerboard combination assay with doxorubicin; type: cell-based, human
B16 (skin melanoma) = assay: Cytotoxicity on B16 cells; type: cell-based, murine; conditions: ratio IC50 non-tumour cells / IC50 cancer cells
[5] = test system: HepG2 (hepatocellular carcinoma); assay: Cytotoxicity on HepG2 cells; type: cell-based, human; conditions: ratio IC50 non-tumour cells / IC50 cancer cells
[6] = in at least one of the ratios tested
[7] = ratio 0.7:1, starting conc. 6 µM
[8] = ratio 1.4:1, starting conc. 6 µM
[9] = ratio 2.8:1, starting conc. 6 µM
[10] = ratio 5.6:1, starting conc. 6 µM
[11] = ratio 11.2:1, starting conc. 6 µM
[12] = ratio 22.4:1, starting conc. 6 µM

CC(=O)C[Se]C(=O)c1cccs1 [K1, Se-(2-Oxopropyl) Thiophene-2-carboselenoate]
Effect on P-gp ATPase activity [1]: inhibited the ATPase activity; also recorded: inhibitors of P-gp ATPase activity
Total Apoptotic Events (Early + Late, %) [2]: 32.6%
Cell Death (%) Treated Sample-Untreated Sample [2]: 2.15%
Early Apoptosis (%) Treated Sample-Untreated Sample [2]: 3.7%
Late Apoptosis (%) Treated Sample-Untreated Sample [2]: 28.9%
Apoptosis Quotient (%) [2]: 66.0%
FSC (Forward Scatter Count) ([3]; 0.2 µM): 2144
SSC (Side Scatter Count) ([3]; 0.2 µM): 989
FAR (fluorescence activity ratio) ([3]; 0.2 µM): 1.37
FSC (Forward Scatter Count) ([3]; 2 µM): 1866
SSC (Side Scatter Count) ([3]; 2 µM): 1067
FAR (fluorescence activity ratio) ([3]; 2 µM): 45.73
Interaction with doxorubicin [4, 6]: synergistic manner; also recorded: interact synergistically
Type of Interaction ([4]; ratio 0.6:1, starting conc. 5 µM): Antagonism
Type of Interaction ([4]; ratio 1.2:1, starting conc. 5 µM): Additive effect
Type of Interaction ([4]; ratio 2.4:1, starting conc. 5 µM): Additive effect
Type of Interaction ([4]; ratio 4.8:1, starting conc. 5 µM): Slight synergism
Type of Interaction ([4]; ratio 9.6:1, starting conc. 5 µM): Slight antagonism
SI MRC-5/B16 (B16 (skin melanoma)): 2.6

CC(=O)C[Se]C(=O)c1ccc(Br)cc1 [K3, Se-(2-Oxopropyl) 4-Bromobenzoselenoate]
Effect on P-gp ATPase activity [1]: stimulated the P-gp ATPase with a comparable intensity to the reference verapamil
Total Apoptotic Events (Early + Late, %) [2]: 44.2%
Cell Death (%) Treated Sample-Untreated Sample [2]: 0.00%
Early Apoptosis (%) Treated Sample-Untreated Sample [2]: 18.6%
Late Apoptosis (%) Treated Sample-Untreated Sample [2]: 25.6%
Apoptosis Quotient (%) [2]: 89.5%
FSC (Forward Scatter Count) ([3]; 0.2 µM): 1706
SSC (Side Scatter Count) ([3]; 0.2 µM): 982
FAR (fluorescence activity ratio) ([3]; 0.2 µM): 3.99
FSC (Forward Scatter Count) ([3]; 2 µM): 2040
SSC (Side Scatter Count) ([3]; 2 µM): 1031
FAR (fluorescence activity ratio) ([3]; 2 µM): 39.17
Interaction with doxorubicin [4, 6]: synergistic manner; also recorded: interact synergistically
Type of Interaction [4, 7]: Moderate antagonism
Type of Interaction [4, 8]: Synergism
Type of Interaction [4, 9]: Moderate synergism
Type of Interaction [4, 10]: Antagonism
Type of Interaction [4, 11]: Moderate antagonism
Type of Interaction [4, 12]: Antagonism
SI MRC-5/B16 (B16 (skin melanoma)): 1.3

CC(=O)C[Se]C(=O)c1cccc(C(F)(F)F)c1 [K5, Se-(2-Oxopropyl) 3-(Trifluoromethyl)benzoselenoate]
Effect on P-gp ATPase activity [1]: milder stimulation
Total Apoptotic Events (Early + Late, %) [2]: 32.7%
Cell Death (%) Treated Sample-Untreated Sample [2]: 1.35%
Early Apoptosis (%) Treated Sample-Untreated Sample [2]: 1.8%
Late Apoptosis (%) Treated Sample-Untreated Sample [2]: 30.9%
Apoptosis Quotient (%) [2]: 66.2%
FSC (Forward Scatter Count) ([3]; 0.2 µM): 1982
SSC (Side Scatter Count) ([3]; 0.2 µM): 1096
FAR (fluorescence activity ratio) ([3]; 0.2 µM): 1.84
FSC (Forward Scatter Count) ([3]; 2 µM): 1949
SSC (Side Scatter Count) ([3]; 2 µM): 1053
FAR (fluorescence activity ratio) ([3]; 2 µM): 32.61 and 32.62
Interaction with doxorubicin ([4]; in all ratios tested): synergistic interaction
Interaction with doxorubicin [4, 6]: synergistic manner; also recorded: interact synergistically
Type of Interaction [4, 7]: Synergism
Type of Interaction [4, 8]: Moderate synergism
Type of Interaction [4, 9]: Synergism
Type of Interaction [4, 10]: Synergism
Type of Interaction [4, 11]: Synergism
Type of Interaction [4, 12]: Synergism
SI MRC-5/B16 (B16 (skin melanoma)): 2.8
SI MRC-5/HepG2 [5]: 1.3

CC(=O)C[Se]C(=O)c1ccc(C(C)(C)C)cc1 [K7, Se-(2-Oxopropyl) 4-(Tert-butyl)benzoselenoate]
Effect on P-gp ATPase activity [1]: inhibited the ATPase activity; also recorded: inhibitors of P-gp ATPase activity
Total Apoptotic Events (Early + Late, %) [2]: 33.6%
Cell Death (%) Treated Sample-Untreated Sample [2]: 0.10%
Early Apoptosis (%) Treated Sample-Untreated Sample [2]: 6.1%
Late Apoptosis (%) Treated Sample-Untreated Sample [2]: 27.5%
Apoptosis Quotient (%) [2]: 68.0%
FSC (Forward Scatter Count) ([3]; 0.2 µM): 1889
SSC (Side Scatter Count) ([3]; 0.2 µM): 938
FAR (fluorescence activity ratio) ([3]; 0.2 µM): 1.53
FSC (Forward Scatter Count) ([3]; 2 µM): 1920
SSC (Side Scatter Count) ([3]; 2 µM): 1045
FAR (fluorescence activity ratio) ([3]; 2 µM): 40.38 and 40.39
Type of Interaction [4, 7]: Moderate antagonism
Type of Interaction [4, 8]: Antagonism
Type of Interaction [4, 9]: Moderate antagonism
Type of Interaction [4, 10]: Moderate antagonism
Type of Interaction [4, 11]: Antagonism
Type of Interaction [4, 12]: Antagonism
SI MRC-5/B16 (B16 (skin melanoma)): 2.7
SI MRC-5/HepG2 [5]: 1.0

CC(=O)C[Se]C(=O)c1cc(F)c(F)cc1F [K8, Se-(2-Oxopropyl) 2,4,5-Trifluorobenzoselenoate]
Effect on P-gp ATPase activity [1]: milder inhibition of the ATPase; also recorded: inhibitors of P-gp ATPase activity
Total Apoptotic Events (Early + Late, %) [2]: 31.6%
Cell Death (%) Treated Sample-Untreated Sample [2]: 0.85%
Early Apoptosis (%) Treated Sample-Untreated Sample [2]: 4.9%
Late Apoptosis (%) Treated Sample-Untreated Sample [2]: 26.7%
Apoptosis Quotient (%) [2]: 64.0%
FSC (Forward Scatter Count) ([3]; 0.2 µM): 1804
SSC (Side Scatter Count) ([3]; 0.2 µM): 853
FAR (fluorescence activity ratio) ([3]; 0.2 µM): 3.38
FSC (Forward Scatter Count) ([3]; 2 µM): 1990
SSC (Side Scatter Count) ([3]; 2 µM): 1131
FAR (fluorescence activity ratio) ([3]; 2 µM): 36.09
Interaction with doxorubicin [4, 6]: synergistic manner; also recorded: interact synergistically
Type of Interaction [4, 7]: Strong synergism
Type of Interaction [4, 8]: Antagonism
Type of Interaction [4, 9]: Antagonism
Type of Interaction [4, 10]: Antagonism
Type of Interaction [4, 11]: Antagonism
SI MRC-5/B16 (B16 (skin melanoma)): 1.8
SI MRC-5/HepG2 [5]: 0.6
